These results are taken from US20210032651A1, “IMPROVEMENT OF HERBICIDE TOLERANCE TO HPPD INHIBITORS BY DOWN-REGULATION OF PUTATIVE 4-HYDROXYPHENYLPYRUVATE REDUCTASES IN SOYBEAN” (BASF SE, priority 2017, published 2021).

The test relates to soybean T1 plants transformed with pMLS0519 or pCPE825. Kind of test: Field trial of the T1 generation, herbicide tolerance. The format is in vivo. The note with it: Puerto Rico, pMLS0519 and pCPE825 the most effective of the constructs tested.

For the compound `CS(=O)(=O)c1cc(C(F)(F)F)ccc1C(=O)c1cnoc1C1CC1` [isoxaflutole, (5-cyclopropyl-4-isoxazolyl)[2-(methylsulfonyl)-4-(trifluoromethyl)phenyl]methanone], the “tolerance in field trial” value is on record as “good tolerance”.
